Source: patent US20210000894A1, “Anti-Stress Composition” (MORINAGA MILK INDUSTRY CO., LTD., priority 2018, published 2021)

Tested on: social defeat stress-bearing C57BL/6J mice
Experiment: Social defeat stress: escape time (time taken to be bitten 20 times by the male ICR mouse)
Type: in vivo
Settings: for escape time, average value: C57BL/6J mice, L. helveticus as living cells orally once a day
Description: In the present experiment, an experiment of causing a small mouse to experience social defeat by allowing the small mouse to be bitten many times by a large mouse was carried out, and an effect of Lactobacillus helveticus on behavioral changes caused by social defeat stress (decrease in escape behavior, a lethargic state) was investigated. In the present experiment, C57BL/6J mice were used as social defeat stress-bearing mice. In a cage of male and female ICR mice cohabiting for three weeks or longer, only the male parent was left. A C57BL/6J mouse was brought into that cage, and the time taken by the C57BL/6J mouse to be bitten 20 times by the male parent mouse (escape time) was measured. As the escape time increases, it is implied that the C57BL/6J mouse attempts to escape from the ICR mouse, and therefore, it was determined that the social defeat stress is reduced. From two days before the beginning of giving social defeat stress until the end of the behavioral test, the experiment was carried out respectively for mice to which milnacipran was administered (Toledomin tablets; manufactured by Janssen Pharmaceutical K.K.) (positive control), mice to which nothing was administered (vehicle control), and mice to which living bacterial cells of Lactobacillus helveticus NITE BP-01671 were orally administered once a day using a sonde needle.

## CCN(CC)C(=O)C1(c2ccccc2)CC1CN (stereo not shown) [milnacipran]
C57BL/6J mice under social defeat stress, summary of Table 1
  escape time compared to the vehicle control (in words): increased significantly compared to the vehicle control
Day 1, administered from two days before stress
  escape time, average value: 24.6 s
Day 2
  escape time, average value: 42.9 s
Day 3
  escape time, average value: 65.9 s
Day 4
  escape time, average value: 63.2 s
Day 5
  escape time, average value: 81.0 s
Day 8
  escape time, average value: 114.8 s
Day 9
  escape time, average value: 159.0 s
Day 10
  escape time, average value: 183.2 s
Day 11
  escape time, average value: 183.9 s
Day 12
  escape time, average value: 143.2 s
Day 15
  escape time, average value: 68.7 s
Day 16
  escape time, average value: 46.9 s
